{
  "source": "ChEMBL document CHEMBL1129256",
  "about": "“Potent thrombin inhibitors that probe the S1 subsite: tripeptide transition state analogues based on a heterocycle-activated carbonyl group” (J Med Chem, 1996)",
  "key": {"Prothrombin": {"biological_target": "Prothrombin (Homo sapiens, UniProt P00734)", "assay": "Inhibition of human alpha-thrombin."}, "Serine protease 1": {"biological_target": "T1, Serine protease 1 (Bos taurus, UniProt P00760)", "T1 sequence (P00760 whole entry)": "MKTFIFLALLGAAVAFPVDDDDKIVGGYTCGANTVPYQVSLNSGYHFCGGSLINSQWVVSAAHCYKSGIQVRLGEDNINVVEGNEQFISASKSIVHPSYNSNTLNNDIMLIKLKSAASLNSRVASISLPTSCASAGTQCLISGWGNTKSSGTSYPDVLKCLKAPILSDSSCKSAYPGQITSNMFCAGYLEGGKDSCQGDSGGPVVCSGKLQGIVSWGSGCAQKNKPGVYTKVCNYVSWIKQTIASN", "assay": "Inhibition of bovine trypsin"}, "Bos taurus": {"organism": "Bos taurus", "assay": "Inhibition of trypsin, selectivity with respect to thrombin"}, "[1]": {"assay": "Compound was tested for inhibition of tissue-type plasminogen activator (tissue plasminogen activator), selectivity with respect to thrombin"}, "[2]": {"assay": "Compound was tested for inhibition of streptokinase (SK). selectivity with respect to thrombin"}, "[3]": {"assay": "Compound was tested for inhibition of activated protein C. selectivity with respect to thrombin"}, "[4]": {"assay": "Compound was tested for inhibition of plasmin, selectivity with respect to thrombin"}},
  "data": [
    {"smiles": "CN[C@H](Cc1ccccc1)C(=O)N1CCC[C@H]1C(=O)N[C@@H](CCCNC(=N)N)C(=O)c1nccs1", "values": [
      {"measurement": "Ki", "setting": "Prothrombin", "result": 3.6, "unit": "nM"},
      {"measurement": "Ki", "setting": "Serine protease 1", "result": 1.6, "unit": "nM"}
    ]},
    {"smiles": "CN[C@H](Cc1ccccc1)C(=O)N1CCC[C@H]1C(=O)N[C@@H](CCCN=C(N)N)C(=O)c1nc2ccccc2o1", "values": [
      {"measurement": "Selectivity", "setting": "Bos taurus", "result": 0.8},
      {"measurement": "Ki", "setting": "Prothrombin", "result": 3.8, "unit": "nM"},
      {"measurement": "Ki", "setting": "Serine protease 1", "result": 2.9, "unit": "nM"}
    ]},
    {"smiles": "CN[C@H](Cc1ccccc1)C(=O)N1CCC[C@H]1C(=O)N[C@@H](CCCNC(=N)N)C(=O)c1nc2c(s1)CCCC2", "values": [
      {"measurement": "Ki", "setting": "Prothrombin", "result": 3.4, "unit": "nM"},
      {"measurement": "Ki", "setting": "Serine protease 1", "result": 4.4, "unit": "nM"}
    ]},
    {"smiles": "CN[C@H](Cc1ccccc1)C(=O)N1CCC[C@H]1C(=O)N[C@@H](CCCN=C(N)N)C(=O)c1nccs1", "values": [
      {"measurement": "Selectivity", "setting": "Bos taurus", "result": 0.4}
    ]},
    {"smiles": "CN[C@H](Cc1ccccc1)C(=O)N1CCC[C@H]1C(=O)N[C@@H](CCCN=C(N)N)C(=O)C1=NC(=O)C2C=CC=CC2=N1", "note": "(some centres undefined)", "values": [
      {"measurement": "Selectivity", "setting": "Bos taurus", "result": 0.6},
      {"measurement": "Ki", "setting": "Prothrombin", "result": 15, "unit": "nM"},
      {"measurement": "Ki", "setting": "Serine protease 1", "result": 8.2, "unit": "nM"}
    ]},
    {"smiles": "CN[C@H](Cc1ccccc1)C(=O)N1CCC[C@H]1C(=O)N[C@@H](CCCN=C(N)N)C(=O)c1nc2ccccc2[nH]1", "values": [
      {"measurement": "Selectivity", "setting": "Bos taurus", "result": 3.2}
    ]},
    {"smiles": "CN[C@H](Cc1ccccc1)C(=O)N1CCC[C@H]1C(=O)N[C@H](C=O)CCCNC(=N)N", "values": [
      {"measurement": "Selectivity", "setting": "Bos taurus", "result": 0.39},
      {"measurement": "Selectivity", "setting": "[1]", "result": 130},
      {"measurement": "Selectivity", "setting": "[2]", "result": 170},
      {"measurement": "Selectivity", "setting": "[3]", "result": 72},
      {"measurement": "Selectivity", "setting": "[4]", "result": 33}
    ]},
    {"smiles": "CN[C@H](Cc1ccccc1)C(=O)N1CCC[C@H]1C(=O)N[C@@H](CCCNC(=N)N)C(=O)c1nc2ccccc2[nH]1", "values": [
      {"measurement": "Ki", "setting": "Prothrombin", "result": 12, "unit": "nM"},
      {"measurement": "Ki", "setting": "Serine protease 1", "result": 38, "unit": "nM"}
    ]},
    {"smiles": "CN[C@H](Cc1ccccc1)C(=O)N1CCC[C@H]1C(=O)N[C@@H](CCCN=C(N)N)C(=O)c1nc2c(s1)CCCC2", "values": [
      {"measurement": "Selectivity", "setting": "Bos taurus", "result": 1.3}
    ]},
    {"smiles": "CN[C@H](Cc1ccccc1)C(=O)N1CCC[C@H]1C(=O)N[C@@H](CCCN=C(N)N)C(=O)c1nc2ccccc2s1", "values": [
      {"measurement": "Selectivity", "setting": "Bos taurus", "result": 16},
      {"measurement": "Selectivity", "setting": "[1]", "result": 3300},
      {"measurement": "Selectivity", "setting": "[2]", "result": 6300},
      {"measurement": "Ki", "setting": "Prothrombin", "result": 0.19, "unit": "nM"},
      {"measurement": "Selectivity", "setting": "[3]", "result": 19000},
      {"measurement": "Selectivity", "setting": "[4]", "result": 12000}
    ]},
    {"smiles": "Cc1ccc(S(=O)(=O)N/C(N)=N\\CCC[C@@H](NC(=O)[C@H]2CCCN2C(=O)[C@H](Cc2ccccc2)N(C)C(=O)OCc2ccccc2)C(O)c2nc3ccccc3s2)cc1", "note": "(some centres undefined)", "values": [
      {"measurement": "Ki", "setting": "Prothrombin", "result": 16000, "unit": "nM"},
      {"measurement": "Ki", "setting": "Serine protease 1", "result": "> 150000", "unit": "nM"}
    ]},
    {"smiles": "CN[C@H](Cc1ccccc1)C(=O)N1CCC[C@H]1C(=O)N[C@@H](CCCNC(=N)N)C(=O)c1nccn1C", "values": [
      {"measurement": "Selectivity", "setting": "Bos taurus", "result": 88}
    ]},
    {"smiles": "CN[C@H](Cc1ccccc1)C(=O)N1CCC[C@H]1C(=O)N[C@@H](CCCN=C(N)N)C(=O)c1nccn1C", "values": [
      {"measurement": "Ki", "setting": "Prothrombin", "result": 50, "unit": "nM"},
      {"measurement": "Ki", "setting": "Serine protease 1", "result": 4400, "unit": "nM"}
    ]},
    {"smiles": "CN[C@H](Cc1ccccc1)C(=O)N1CCC[C@H]1C(=O)N[C@@H](CCCNC(=N)N)C(=O)c1ccccn1", "values": [
      {"measurement": "Selectivity", "setting": "Bos taurus", "result": 0.8},
      {"measurement": "Ki", "setting": "Prothrombin", "result": 85, "unit": "nM"},
      {"measurement": "Ki", "setting": "Serine protease 1", "result": 73, "unit": "nM"}
    ]},
    {"smiles": "Cc1ccc(S(=O)(=O)NC(=N)NCCC[C@H](NC(=O)[C@@H]2CCCN2C(=O)[C@@H](Cc2ccccc2)N(C)C(=O)OCc2ccccc2)C(O)c2nc3ccccc3s2)cc1", "note": "(some centres undefined)", "values": [
      {"measurement": "Ki", "setting": "Prothrombin", "result": 5300, "unit": "nM"},
      {"measurement": "Ki", "setting": "Serine protease 1", "result": "> 150000", "unit": "nM"}
    ]},
    {"smiles": "CN[C@H](Cc1ccccc1)C(=O)N1CCC[C@H]1C(=O)N[C@@H](CCCNC(=N)N)C(=O)c1nc2ccccc2n1C", "values": [
      {"measurement": "Selectivity", "setting": "Bos taurus", "result": 36},
      {"measurement": "Ki", "setting": "Prothrombin", "result": 8.1, "unit": "nM"},
      {"measurement": "Ki", "setting": "Serine protease 1", "result": 290, "unit": "nM"}
    ]}
  ]
}
